Source: patent US20210017607A1, “Methods of Predicting Responsiveness to Cancer Therapies” (The University of Chicago, priority 2019, published 2021)

Experiments:
[1] = system: bone marrow derived macrophages (BMDMs); experiment: IFNβ1 ELISA of supernatants after DMXAA treatment; type: cell-based, mouse; details: 36 hours
Procedure: FIGS. 15A-15E. Differential STING pathway activation within B6-Myc (STING^hi) cell lines and BMDMs relative to Myc-CAP (STING^lo) cells. (15A, 15B) The indicated cancer cell lines and BMDMs were treated with DMXAA (mouse STING agonist) for 1 and 24 hours, respectively, and protein extracts were interrogated for cGAS/STING pathway activation with the indicated antibodies by Western blotting. Supernatants were collected from for IFNβ1 ELISA following 36 hours of treatment with DMXAA (15C, 15D). (15E) Syngeneic Myc-CAP (STING^lo) tumors were processed into single cell suspensions and used for phycoerythrin-based sorting of CD45+ cellular fractions. Equal numbers of cells from these fractions were stimulated with DMXAA. Supernatants were collected at 36 hrs for detection of IFNB1 by ELISA; n=3 independent experiments; Significance/p-values were calculated by one-way Anova (for 15C & 15E) or paired t-test (for 15D); TAM=tumor associated macrophage; s.e.=short exposure; l.e.=long exposure.
Generation of BMDMs. Bone marrow derived macrophages were differentiated as previously described. […]

[2] = system: prostate-specific PTEN^−/−p53^−/− GEMM tumors; experiment: Ex vivo GEMM tumor suspensions, IFNβ1 ELISA; type: cell-based, mouse; details: DMXAA 50 μg/mL, 36 hours
Procedure: FIG. 39. […] Tumors from prostate-specific PTEN^−/−p53^−/− GEMM tumors were processed into single cell suspensions and treated with indicated drugs (DMXAA at 50 μg/mL, Buparlisib at 1000 nM, Rucaparib at 500 nM). At 36 hours supernatants were collected for ELISA based detection of IFNβ1; n=1 independent experiment.
Ex vivo Assays. Subcutaneous tumors were isolated by gentle mechanical dissociation in the presence of 1×RPMI (supplemented with 10% fetal bovine serum, 1% penicillin-streptomycin and 2% L-glutamine). 1×ACK was used for RBC lysis. Single cell suspensions were washed twice with media, by centrifuging at 500×g for 5 min at 4° C. and quantified using 0.1% […] solution. Cells were seeded at a concentration 0.2-0.5 million cells/mL and treated with indicated drugs singly or in combination for 36 hours. DMXAA (positive control) was used at indicated concentration. Supernatants from treated BMDMs were collected at the end of 36 hours and processed as per ELISA protocol for detection of cytokines/chemokines.

[3] = system: Pi3K enzymatic activity; experiment: Intratumoral target inhibition by western blotting; type: in vivo, mouse; details: B6-Myc and Myc-CAP tumors; 30 mg/kg oral gavage daily 7 days
Procedure: (§1) FIGS. 18A and 18B. Buparlisib and Rucaparib inhibit intratumoral Pi3K and PARP enzymatic activity, respectively, within B6-Myc (STING^hi) and Myc-CAP (STING^lo) tumors. Subcutaneous Myc-CAP (STING^lo) and B6-Myc (STING^hi) tumors at 400-500 mm^3 volumes were treated with either buparlisib (pan-PI3K inhibitor, 30 mg/kg) or rucaparib (PARP inhibitor, 150 mg/kg) by oral gavage daily for 7 days. At end of treatment, both (18A) B6-Myc (STING^hi) and (18B) Myc-CAP (STING^lo) tumors were harvested and protein extracts utilized for assessment of target inhibition with the indicated antibodies by western blotting. n=2 mice per treatment group.
(§2) Western Blot Analysis. RIPA and T-PER buffer (Thero Scientific®), supplemented with protease (Roche®) and HALT phosphatase inhibitor cocktail (Roche®), were used for preparation of lysates from in vitro cell lines and whole tumor chunks, respectively. For western blotting, the following antibodies were used from Cell Signaling Technology®: Polyclonal rabbit anti-mouse-phospho-γH2AX, phospho-AKT, total AKT, cGAS, STING, phospho-IRF3, total IRF3, phospho-TBK1, total TBK1, PTEN, β-actin and GAPDH. Monoclonal anti-mouse PAR antibody was obtained from Trevigen®. Images of scanned blots were processed using ADOBE Photoshop®.

[4] = system: PARP enzymatic activity; experiment: Intratumoral target inhibition by western blotting; type: in vivo, mouse; details: B6-Myc and Myc-CAP tumors; 150 mg/kg oral gavage daily 7 days
Procedure: as §1, §2

Cc1ccc2c(=O)c3cccc(CC(=O)O)c3oc2c1C [DMXAA, 5,6-Dimethylxanthenone-4-acetic Acid]
fold induction in IFN-β levels [1]: 46.4 fold
STING activation (IFNβ1 ELISA) [2]: induces STING activation

Nc1cc(C(F)(F)F)c(-c2cc(N3CCOCC3)nc(N3CCOCC3)n2)cn1 [buparlisib]
intratumoral Pi3K enzymatic activity [3]: inhibit

CNCc1ccc(-c2[nH]c3cc(F)cc4c3c2CCNC4=O)cc1 [rucaparib]
intratumoral PARP enzymatic activity [4]: inhibit
